Like-named read-outs stand apart in the source and are kept apart here. Positions of bridges follow the written chain, without caps; N, C: chain ends. Residues, ends and D or L forms follow the SMILES beside them.
Assays:
Assay in all cases: cell-based
hNav1.7 = hNav1.7 (Homo sapiens, UniProt Q15858); type: cell-based; settings: IonWorks Quattro, read-out: IWQ Use Nav1.7
hNav1.3 = hNav1.3 (Homo sapiens, UniProt Q9NY46); settings: IonWorks Quattro, read-out: IWQ Use Nav1.3
hNav1.5 = hNav1.5 (Homo sapiens, UniProt Q14524); settings: IonWorks Quattro, read-out: IWQ Use Nav1.5
[1] = clamped to −110 mV, depolarized to −10 mV, 5 min after compound, n=2

hNav1.3, sequence (Q9NY46 whole entry, looked up): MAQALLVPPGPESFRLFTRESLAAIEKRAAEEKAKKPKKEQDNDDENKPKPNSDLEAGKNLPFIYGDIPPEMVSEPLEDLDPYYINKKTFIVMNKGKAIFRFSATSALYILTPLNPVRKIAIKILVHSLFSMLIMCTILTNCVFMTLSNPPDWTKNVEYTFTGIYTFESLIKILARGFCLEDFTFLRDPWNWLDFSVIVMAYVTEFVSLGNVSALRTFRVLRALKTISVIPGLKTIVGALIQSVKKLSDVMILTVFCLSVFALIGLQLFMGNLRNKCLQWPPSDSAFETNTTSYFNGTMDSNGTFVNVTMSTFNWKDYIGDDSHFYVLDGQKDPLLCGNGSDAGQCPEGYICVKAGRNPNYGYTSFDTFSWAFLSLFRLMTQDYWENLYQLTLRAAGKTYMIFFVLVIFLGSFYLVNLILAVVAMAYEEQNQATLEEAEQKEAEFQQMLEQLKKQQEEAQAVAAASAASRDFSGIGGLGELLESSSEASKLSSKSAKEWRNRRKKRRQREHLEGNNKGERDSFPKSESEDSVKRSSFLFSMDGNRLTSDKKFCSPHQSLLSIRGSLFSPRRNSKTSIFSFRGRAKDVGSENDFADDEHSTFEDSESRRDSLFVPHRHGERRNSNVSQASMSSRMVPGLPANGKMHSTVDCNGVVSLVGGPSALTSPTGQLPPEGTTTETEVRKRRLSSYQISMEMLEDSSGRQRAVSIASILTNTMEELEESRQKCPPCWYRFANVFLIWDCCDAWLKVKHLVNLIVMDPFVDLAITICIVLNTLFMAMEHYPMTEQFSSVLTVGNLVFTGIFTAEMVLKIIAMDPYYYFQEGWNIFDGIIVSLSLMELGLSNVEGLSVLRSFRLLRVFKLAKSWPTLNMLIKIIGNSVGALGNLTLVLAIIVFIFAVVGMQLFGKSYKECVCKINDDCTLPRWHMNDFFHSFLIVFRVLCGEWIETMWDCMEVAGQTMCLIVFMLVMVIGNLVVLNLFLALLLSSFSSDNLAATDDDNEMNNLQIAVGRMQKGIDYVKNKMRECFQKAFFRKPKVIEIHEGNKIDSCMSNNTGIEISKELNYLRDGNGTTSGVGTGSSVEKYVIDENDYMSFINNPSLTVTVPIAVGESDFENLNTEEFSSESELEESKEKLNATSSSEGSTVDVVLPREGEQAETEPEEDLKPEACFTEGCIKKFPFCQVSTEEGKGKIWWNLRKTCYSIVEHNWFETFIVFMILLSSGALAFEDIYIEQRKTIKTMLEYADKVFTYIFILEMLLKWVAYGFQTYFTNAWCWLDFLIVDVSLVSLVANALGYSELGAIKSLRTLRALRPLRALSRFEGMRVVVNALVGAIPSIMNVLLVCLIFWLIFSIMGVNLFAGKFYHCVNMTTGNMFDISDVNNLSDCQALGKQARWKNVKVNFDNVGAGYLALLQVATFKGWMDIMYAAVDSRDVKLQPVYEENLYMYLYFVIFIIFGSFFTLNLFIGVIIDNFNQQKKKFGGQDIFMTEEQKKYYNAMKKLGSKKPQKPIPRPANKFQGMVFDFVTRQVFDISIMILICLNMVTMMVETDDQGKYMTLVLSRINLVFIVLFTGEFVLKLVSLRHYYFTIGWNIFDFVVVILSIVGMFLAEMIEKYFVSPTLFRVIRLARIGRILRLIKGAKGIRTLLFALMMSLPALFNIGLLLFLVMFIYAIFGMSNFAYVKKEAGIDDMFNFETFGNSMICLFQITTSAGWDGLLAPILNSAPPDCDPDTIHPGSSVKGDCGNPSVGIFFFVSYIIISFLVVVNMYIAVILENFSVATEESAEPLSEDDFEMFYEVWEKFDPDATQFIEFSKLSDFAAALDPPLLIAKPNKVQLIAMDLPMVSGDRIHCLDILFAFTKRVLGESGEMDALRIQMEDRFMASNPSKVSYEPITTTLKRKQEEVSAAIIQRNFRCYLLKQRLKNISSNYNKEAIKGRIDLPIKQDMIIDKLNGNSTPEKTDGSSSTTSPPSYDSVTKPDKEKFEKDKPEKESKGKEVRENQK
hNav1.5, sequence (Q14524 whole entry, looked up): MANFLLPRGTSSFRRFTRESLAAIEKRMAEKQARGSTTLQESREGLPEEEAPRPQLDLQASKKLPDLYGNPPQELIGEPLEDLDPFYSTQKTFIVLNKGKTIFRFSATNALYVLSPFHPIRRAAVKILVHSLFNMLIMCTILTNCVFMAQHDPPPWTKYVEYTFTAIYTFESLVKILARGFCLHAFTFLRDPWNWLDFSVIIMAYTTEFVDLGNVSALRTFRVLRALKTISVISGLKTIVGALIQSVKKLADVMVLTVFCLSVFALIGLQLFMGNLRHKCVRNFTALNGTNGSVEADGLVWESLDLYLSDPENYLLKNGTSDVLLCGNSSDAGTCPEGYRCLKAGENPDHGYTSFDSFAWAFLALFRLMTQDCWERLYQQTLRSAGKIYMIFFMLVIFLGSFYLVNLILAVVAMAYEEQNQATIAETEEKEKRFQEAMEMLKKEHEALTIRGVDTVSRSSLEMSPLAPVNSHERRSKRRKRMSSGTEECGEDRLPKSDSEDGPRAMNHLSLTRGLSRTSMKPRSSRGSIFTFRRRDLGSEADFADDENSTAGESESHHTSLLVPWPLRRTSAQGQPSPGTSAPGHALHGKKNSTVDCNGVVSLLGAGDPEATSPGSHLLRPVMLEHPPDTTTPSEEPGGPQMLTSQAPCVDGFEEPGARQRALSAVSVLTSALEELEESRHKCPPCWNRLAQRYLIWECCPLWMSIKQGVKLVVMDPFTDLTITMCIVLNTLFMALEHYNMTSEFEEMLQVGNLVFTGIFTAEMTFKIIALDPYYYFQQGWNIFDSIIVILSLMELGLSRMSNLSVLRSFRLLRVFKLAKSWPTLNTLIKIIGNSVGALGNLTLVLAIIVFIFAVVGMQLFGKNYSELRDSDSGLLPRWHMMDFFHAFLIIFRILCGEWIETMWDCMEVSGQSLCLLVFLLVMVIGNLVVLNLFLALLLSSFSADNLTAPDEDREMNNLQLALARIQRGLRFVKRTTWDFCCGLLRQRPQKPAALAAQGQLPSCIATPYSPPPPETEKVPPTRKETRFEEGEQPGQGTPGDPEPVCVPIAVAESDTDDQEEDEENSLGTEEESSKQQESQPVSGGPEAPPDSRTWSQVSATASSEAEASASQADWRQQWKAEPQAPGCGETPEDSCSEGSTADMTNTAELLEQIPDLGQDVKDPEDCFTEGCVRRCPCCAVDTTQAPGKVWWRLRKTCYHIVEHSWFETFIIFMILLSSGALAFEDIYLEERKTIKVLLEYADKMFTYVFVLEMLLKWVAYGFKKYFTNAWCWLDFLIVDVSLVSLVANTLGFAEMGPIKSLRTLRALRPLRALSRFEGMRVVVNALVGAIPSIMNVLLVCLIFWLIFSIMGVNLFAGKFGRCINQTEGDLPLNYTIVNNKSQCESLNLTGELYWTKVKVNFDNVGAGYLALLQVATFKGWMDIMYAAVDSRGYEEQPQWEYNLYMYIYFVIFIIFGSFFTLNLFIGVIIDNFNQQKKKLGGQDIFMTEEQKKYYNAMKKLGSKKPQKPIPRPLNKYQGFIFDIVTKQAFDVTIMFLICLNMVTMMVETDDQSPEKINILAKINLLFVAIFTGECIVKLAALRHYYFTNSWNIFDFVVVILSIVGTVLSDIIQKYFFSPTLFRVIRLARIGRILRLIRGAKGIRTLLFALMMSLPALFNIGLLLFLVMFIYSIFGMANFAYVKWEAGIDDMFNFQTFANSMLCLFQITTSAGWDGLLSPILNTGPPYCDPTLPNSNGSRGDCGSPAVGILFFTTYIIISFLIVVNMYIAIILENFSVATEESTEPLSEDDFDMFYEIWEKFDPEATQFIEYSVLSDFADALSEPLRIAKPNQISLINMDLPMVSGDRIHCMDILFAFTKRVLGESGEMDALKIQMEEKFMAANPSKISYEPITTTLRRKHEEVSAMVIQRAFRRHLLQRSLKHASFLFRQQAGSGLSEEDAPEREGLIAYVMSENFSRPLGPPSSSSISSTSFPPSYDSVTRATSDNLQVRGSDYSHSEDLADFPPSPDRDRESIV

| SMILES | IC50 (hNav1.7; [1]) [µM] | IC50 (hNav1.3; [1]) [µM] | IC50 (hNav1.5; [1]) [µM] | IC50 (hNav1.7; use-dependent protocol, hNav1.7) [µM] | IC50 (hNav1.3; use-dependent protocol, hNav1.3) [µM] | IC50 (hNav1.5; use-dependent protocol, hNav1.5) [µM] |
| --- | --- | --- | --- | --- | --- | --- |
| CC[C@H](C)[C@@H]1NC(=O)[C@@H]2CSSC[C@@H]3NC(=O)[C@H](C(C)C)NC(=O)[C@H](CC(C)C)NC(=O)[C@H](CC(N)=O)NC(=O)[C@@H]4CCCN4C(=O)[C@H](CCCNC(=N)N)NC(=O)[C@H](CSSC[C@H](NC(=O)[C@@H]4CCCN4)C(=O)N[C@@H](CC(C)C)C(=O)NCC(=O)N[C@@H](Cc4ccccc4)C(=O)N[C@@H](CCSC)C(=O)N[C@@H](CCCNC(=N)N)C(=O)N[C@@H](CCCCN)C(=O)N2)NC(=O)[C@H](CSSC[C@@H](C(=O)N[C@@H](CCCCN)C(=O)N[C@@H](Cc2ccc(O)cc2)C(=O)N[C@H](C(=O)N[C@@H](Cc2ccccc2)C(N)=O)C(C)C)NC(=O)[C@H](Cc2c[nH]c4ccccc24)NC(=O)[C@H](CCCCN)NC(=O)[C@H](Cc2c[nH]cn2)NC(=O)[C@H]([C@@H](C)O)NC(=O)[C@H](CCCNC(=N)N)NC(=O)[C@H](CO)NC3=O)NC(=O)[C@H](CCCCN)NC(=O)[C@H](CC(=O)O)NC(=O)[C@H](CC(N)=O)NC(=O)[C@H](CC(=O)O)NC(=O)[C@@H]2CCCN2C1=O [SEQ ID NO: 190] (H-PCLGFMRKCIPDNDKCCRPNLVCSRTHKWCKYVF-NH2; disulfide 2-17, 9-23, 16-30) | 0.09 | 0.04 | 9.73 |  |  |  |
| CC[C@H](C)[C@@H]1NC(=O)[C@@H]2CSSC[C@@H]3NC(=O)[C@H](C(C)C)NC(=O)[C@H](CC(C)C)NC(=O)[C@H](CC(N)=O)NC(=O)[C@@H]4CCCN4C(=O)[C@H](CCCNC(=N)N)NC(=O)[C@H](CSSC[C@H](NC(=O)[C@@H](N)CC(=O)O)C(=O)N[C@@H](CC(C)C)C(=O)NCC(=O)N(C)[C@@H](CC(C)C)C(=O)N[C@@H](CC(C)C)C(=O)N[C@@H](CCCNC(=N)N)C(=O)N[C@@H](CCCCN)C(=O)N2)NC(=O)[C@H](CSSC[C@@H](C(=O)N[C@@H](CCCCN)C(=O)N[C@@H](Cc2ccc(O)cc2)C(=O)N[C@H](C(=O)N[C@@H](Cc2ccccc2)C(N)=O)C(C)C)NC(=O)[C@H](Cc2c[nH]c4ccccc24)NC(=O)[C@H](CCCCN)NC(=O)[C@H](Cc2c[nH]cn2)NC(=O)[C@H]([C@@H](C)O)NC(=O)[C@H](CCCNC(=N)N)NC(=O)[C@H](CO)NC3=O)NC(=O)[C@H](CCCCN)NC(=O)[C@H](CC(=O)O)NC(=O)[C@H](CC(N)=O)NC(=O)[C@H](CC(=O)O)NC(=O)[C@@H]2CCCN2C1=O [compound 673] |  |  |  | 0.17 | 0.69 | > 5 |
| CC[C@H](C)[C@@H]1NC(=O)[C@@H]2CSSC[C@@H]3NC(=O)[C@H](C(C)C)NC(=O)[C@H](CC(C)C)NC(=O)[C@H](CC(N)=O)NC(=O)[C@@H]4CCCN4C(=O)[C@H](CCCNC(=N)N)NC(=O)[C@H](CSSC[C@H](NC(=O)[C@@H](N)CC(=O)O)C(=O)N[C@@H](CC(C)C)C(=O)NCC(=O)N[C@@H](Cc4ccccc4)C(=O)N[C@@H](Cc4c[nH]cn4)C(=O)N[C@@H](CCCNC(=N)N)C(=O)N[C@@H](CCCCN)C(=O)N2)NC(=O)[C@H](CSSC[C@@H](C(=O)N[C@@H](CCCCN)C(=O)N[C@@H](Cc2ccc(O)cc2)C(=O)N[C@H](C(=O)N[C@@H](Cc2ccccc2)C(N)=O)C(C)C)NC(=O)[C@H](Cc2c[nH]c4ccccc24)NC(=O)[C@H](CCCCN)NC(=O)[C@H](Cc2c[nH]cn2)NC(=O)[C@H]([C@@H](C)O)NC(=O)[C@H](CCCNC(=N)N)NC(=O)[C@H](CO)NC3=O)NC(=O)[C@H](CCCCN)NC(=O)[C@H](CC(=O)O)NC(=O)[C@H](CC(N)=O)NC(=O)[C@H](CC(=O)O)NC(=O)[C@@H]2CCCN2C1=O [SEQ ID NO: 281] (H-DCLGFHRKCIPDNDKCCRPNLVCSRTHKWCKYVF-NH2; disulfide 2-17, 9-23, 16-30) | 4.72 | 7.77 | 10.1 |  |  |  |

From patent US9340590B2 (priority 2011, dated 2016)
